Assay results reported in the supplement of paper PMC11451515.

Key:
Assay in all cases: AUC of viability dose-response curve (% viability x log10 dose units); higher = less sensitive
Conditions in all cases: 48 h
[1] = tested on: SEM cells
Summary of the method: (§1)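 Seeding of medium-adapted leukemia cells was at 500 or 1000 cells/well in 1536-well plates, followed by 48 h at 37°C with library compounds in DMSO at 11 threefold doses from 47 μM to 0.79 nM. CellTiter-Glo One luminescence was normalised per plate to DMSO and cell-free wells and fitted as a four-parameter log-logistic function of log10 dose. Area under the curve was integrated by trapezoidal rule, with curves exceeding full viability scaled and curves failing quality control removed.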

[2] = tested on: P12-Ichikawa
Summary of the method: as §1

[3] = tested on: NOMO1
Summary of the method: as §1

[4] = RPMI 5 mM glucose + 10% dialyzed FBS

| Structure (SMILES) | AUC of viability dose-response curve ([1]; HPLM + 10% dialyzed FBS) | AUC of viability dose-response curve ([1]; RPMI 5 mM glucose + 10% FBS) | AUC of viability dose-response curve [1, 4] | AUC of viability dose-response curve ([2]; HPLM + 10% dialyzed FBS) | AUC of viability dose-response curve ([2]; RPMI 5 mM glucose + 10% FBS) | AUC of viability dose-response curve [2, 4] | AUC of viability dose-response curve ([3]; HPLM + 10% dialyzed FBS) | AUC of viability dose-response curve ([3]; RPMI 5 mM glucose + 10% FBS) | AUC of viability dose-response curve [3, 4] |
| --- | --- | --- | --- | --- | --- | --- | --- | --- | --- |
| O=C(O)CCCCC(CCSCc1ccccc1)SCc1ccccc1 (stereo unspecified) | 463 | 458 | 467 | 433 | 462 | 457 | 446 | 457 | 451 |
| CCc1cc(C(N)=S)ccn1 | 407 | 434 | 447 | 448 | 463 | 452 | 459 | 434 | 460 |
| CCn1c(-c2nonc2N)nc2c(C#CC(C)(C)O)ncc(OC[C@H]3CCCNC3)c21 | 341 | 397 | 345 | 358 | 282 | 313 | 360 | 388 | 390 |
| NC[C@@H]1O[C@H](O[C@H]2[C@@H](O)[C@H](O[C@@H]3[C@@H](O)[C@H](N)C[C@H](N)[C@H]3O[C@H]3O[C@H](CN)[C@@H](O)[C@H](O)[C@H]3N)O[C@@H]2CO)[C@H](N)[C@@H](O)[C@@H]1O.O=S(=O)(O)O.O=S(=O)(O)O.O=S(=O)(O)O | 476 | 463 | 458 | 473 | 467 | 461 | 468 | 465 | 428 |
| O=C(CCCCCCC(=O)Nc1cccnc1)NO | 401 | 402 | 375 | 400 | 374 | 368 | 435 | 399 | 432 |
| CC[C@]12CC[C@H]3[C@@H](CCC/4=C/C(=O)CC[C@H]34)[C@@H]1CC[C@@]2(O)C#C | 417 | 448 | 452 | 413 | 405 | 386 |  |  |  |
| C[C@@H]1CCN(C(=O)CC#N)C[C@@H]1N(C)c1ncnc2[nH]ccc12 | 381 | 453 | 430 | 411 | 413 | 377 | 407 | 376 | 414 |
| CCC(C)N1\N=C/N(C1=O)C2=CC=C(C=C2)N3CCN(CC3)C4=CC=C(OC[C@H]5CO[C@@](C[N]6C=NC=N6)(O5)C7=CC=C(Cl)C=C7Cl)C=C4 (stereo partly specified) | 468 | 472 | 452 | 458 | 463 | 458 | 448 | 456 | 454 |
| CCOC(=O)[C@@]1(CCCCCCOc2ccc(Cl)cc2)CO1 | 428 | 413 | 426 | 448 | 452 | 454 | 458 | 444 | 456 |
| COc1ccc(C(CN(C)C)C2(O)CCCCC2)cc1 (stereo unspecified) | 476 | 475 | 424 | 459 | 405 | 461 |  |  |  |
| C[C@H]1C[C@H]2[C@@H]3CC[C@](O)(C(=O)CO)[C@@]3(C)C[C@H](O)[C@@H]2[C@@]\4(C)/C=C\C(=O)\C=C14 | 315 | 357 | 352 | 378 | 341 | 314 | 456 | 444 | 451 |
| Clc1cccc(-n2nnnc2NCc2ccccc2Oc2ccccn2)c1Cl | 439 | 470 | 474 | 458 | 467 | 441 | 472 | 472 | 470 |
| CN1CCN(c2c(F)cc3c(=O)c(C(=O)O)cn(CCF)c3c2F)CC1 | 439 | 458 | 466 | 459 | 457 | 445 | 466 | 447 | 461 |
| CCCC(C)(COC(N)=O)COC(=O)NC(C)C (stereo unspecified) | 451 | 443 | 412 | 459 | 455 | 458 | 466 | 451 | 446 |
| CC\12CCC(=O)\C=C1CCC3C2CCC4(C)C3CCC4(O)C#C (stereo unspecified) | 452 | 461 | 458 | 442 | 452 | 421 | 456 | 430 | 428 |
| NC(=O)Nc1sc(-c2ccc(F)cc2)cc1C(N)=O | 425 | 304 | 402 | 419 | 421 | 414 | 415 | 436 | 415 |
| CC(C)N(C[C@H]1O[C@@H](n2cnc3c(N)ncnc32)[C@H](O)[C@@H]1O)[C@H]1C[C@@H](CCc2nc3cc(C(C)(C)C)ccc3[nH]2)C1 | 411 | 333 | 399 | 320 | 450 | 383 | 386 | 450 | 429 |
| Cc1c(-c2cccc3c(CCCOc4cccc5ccccc45)c(C(=O)O)n(Cc4cccnc4)c23)c(COc2ccc(N3CCN([S+](=O)([O-])N(C)C)CC3)cc2)nn1C | 415 | 456 | 423 | 427 | 421 | 418 | 407 | 416 | 423 |
| Cc1cc(O)c2c(c1)C(=O)c1cccc(O)c1C2=O | 445 | 439 | 449 | 465 | 472 | 466 | 460 | 475 | 460 |
| O=C(CCc1ccc(O)cc1)c1c(O)cc(O)cc1O | 433 | 438 | 434 | 459 | 467 | 459 | 457 | 460 | 455 |
| Cc1cc(OCCC[S+](C)(=O)[O-])cc(C)c1-c1cccc(COc2ccc3c(c2)OC[C@H]3CC(=O)O)c1 | 454 | 448 | 445 | 460 | 428 | 430 | 466 | 458 | 434 |
| CC(C)(F)C[C@H](N[C@@H](c1ccc(-c2ccc([S+](C)(=O)[O-])cc2)cc1)C(F)(F)F)C(=O)NC1(C#N)CC1 | 454 | 452 | 475 | 471 | 471 | 474 | 467 | 427 | 446 |
| COc1cc(Nc2c(C#N)cnc3cc(OCCCN4CCN(C)CC4)c(OC)cc23)c(Cl)cc1Cl |  |  |  | 372 | 382 | 382 | 370 | 397 | 407 |

| Structure (SMILES) | AUC of viability dose-response curve ([1]; HPLM + 10% dialyzed FBS) | AUC of viability dose-response curve ([1]; RPMI 5 mM glucose + 10% FBS) | AUC of viability dose-response curve [1, 4] | AUC of viability dose-response curve ([2]; HPLM + 10% dialyzed FBS) | AUC of viability dose-response curve ([2]; RPMI 5 mM glucose + 10% FBS) | AUC of viability dose-response curve [2, 4] | AUC of viability dose-response curve ([3]; HPLM + 10% dialyzed FBS) | AUC of viability dose-response curve ([3]; RPMI 5 mM glucose + 10% FBS) | AUC of viability dose-response curve [3, 4] |
| --- | --- | --- | --- | --- | --- | --- | --- | --- | --- |
| OC1=CC2=C(C=C1)C(=O)\C(=C(O2)\C3=CC(=C(O)C=C3)O)O | 456 | 456 | 418 | 430 | 420 | 406 |  |  |  |
| Cc1ccc([N+](=O)[O-])cc1[S+](=O)([O-])N(C)/N=C/c1cnc2ccc(Br)cn12 | 203 | 207 | 222 | 250 | 240 | 244 | 196 | 223 | 217 |
| NC(=O)[C@H]1CCS[C@@H]2C[C@]3(CCCN3C(=O)Cc3ccc(NC(=O)COc4ccc(Cl)cc4Cl)cc3)C(=O)N12 | 376 | 325 | 362 | 316 | 343 | 362 | 356 | 378 | 409 |
| OC1=CC=C(C=C1)\C2=C\OC3=C(C(=CC(=C3)O)O)C2=O | 452 | 395 | 433 | 466 | 471 | 468 | 459 | 455 | 473 |
| O=C(CS(=O)Cc1ccco1)NC/C=C\COc1cc(CN2CCCCC2)ccn1 (stereo unspecified) | 455 | 452 | 446 | 459 | 463 | 450 | 464 | 440 | 474 |
| COc1cc([C@@H](CC(=O)O)c2ccc(C)c(CN3C[C@@H](C)Oc4ccccc4[S+]3(=O)[O-])c2)cc2nnn(C)c12 | 452 | 350 | 367 | 407 | 446 | 452 | 403 | 418 | 431 |
| CN(C)C1=CC(=CC=C1)C\2=C\3C(=O)N(NC3=C/C(=O)N2C)C4=CC=CC=C4Cl | 322 | 317 | 311 | 312 | 327 | 342 | 292 | 314 | 314 |
| CCc1cc2c(cc1N1CCC(N3CCOCC3)CC1)C(C)(C)c1[nH]c3cc(C#N)ccc3c1C2=O |  |  |  | 464 | 443 | 451 |  |  |  |
| CC(=O)N[C@@H]1[C@@H](NC(N)=N)\C=C(/O[C@H]1[C@H](O)[C@H](O)CO)C(O)=O | 457 | 421 | 419 | 461 | 466 | 471 | 464 | 463 | 443 |
| O=C(NCCCCN1CCOCC1)c1cc2ccccc2o1 | 441 | 440 | 457 | 467 | 440 | 448 | 459 | 462 | 451 |
| CC[C@@H]1[C@@H](C)O[C@@](O)([C@@H](C)[C@H](O)[C@H](C)[C@H]2OC(=O)/C=C/C=C/[C@H](C)[C@@H]([C@@H](C)[C@@H](O)[C@H](C)[C@@]3(O)C[C@@H](O[C@H]4C[C@H](O)[C@H](O)[C@H](C)O4)[C@H](CC)[C@@H](C)O3)OC(=O)/C=C/C=C/[C@@H]2C)C[C@H]1O[C@H]1C[C@H](O)[C@H](O)[C@H](C)O1 | 368 | 357 | 351 | 374 | 403 | 380 | 370 | 366 | 372 |
| Cc1ccccc1C(OCCN(C)C)c1ccccc1 (stereo unspecified) | 453 | 463 | 465 | 446 | 476 | 469 | 462 | 468 | 457 |
| N\C1=N\C2=C(N=C[N]2COCCO)C(=O)N1 | 451 | 460 | 431 | 472 | 465 | 473 | 464 | 461 | 467 |
| CCC[S+](=O)([O-])Nc1ccc(F)c(C(=O)c2c[nH]c3ncc(Cl)cc23)c1F | 409 | 419 | 425 | 439 | 450 | 431 | 403 | 437 | 440 |
| CO[C@@]12[C@H](COC(N)=O)C/3=C(N1C[C@@H]4N[C@H]24)/C(=O)/C(=C(N)\C3=O)C | 453 | 431 | 435 | 472 | 443 | 419 | 449 | 453 | 446 |
| C/C(=N\NC(=S)N1CCC1)c1ccccn1 |  |  |  | 127 | 120 | 122 | 122 | 140 | 121 |
| Cc1nc2cc(C(=O)N3CCC4(CC3)CC(=O)c3c(cnn3C(C)C)C4)ccc2[nH]1 |  |  |  | 457 | 469 | 458 | 465 | 471 | 455 |
| Cc1nn(C)c(COc2ccc(N3CCN([S+](=O)([O-])N(C)C)CC3)cc2)c1-c1cccc2c(CCCOc3cccc4ccccc34)c(C(=O)O)n(CCN3CCOCC3)c12 | 465 | 377 | 458 | 392 | 463 | 456 |  |  |  |
| O=C(Nc1c[nH]nc1-c1nc2cc(CN3CCOCC3)ccc2[nH]1)NC1CC1 | 219 | 202 | 199 | 270 | 282 | 304 |  |  |  |
| CN(C)c1ccc2nc3ccc(N(C)C)cc3[s+]c2c1 |  |  |  | 387 | 386 | 395 | 401 | 374 | 376 |
| O=C1CCC[C@@H]2[C@H]3CCCN4CCC[C@@H](CN12)[C@@H]34 | 324 | 390 | 347 | 426 | 396 | 389 |  |  |  |
| C=C1C(=O)[C@@]23C(CC[C@@H]1[C@H]2O)[C@@]12CO[C@]3(O)[C@@H](O)[C@@H]1C(C)(C)CC[C@@H]2O (stereo partly specified) |  |  |  | 409 | 394 | 389 | 435 | 444 | 451 |
